Results reported in the NIST ThermoML archive (doi:10.1021/je900615b).
Values joined by “and” are separate entries in the source; they are usually repeats but may differ in a detail not shown here. Equal values may be shown once.

Details: Liquid, Hot wire method

CCOCC [diethyl ether]
Details	thermal conductivity [W/m/K]
234.64 K, 100 kPa	0.1453
234.88 K, 20100 kPa	0.1543
234.9 K, 30300 kPa	0.1565
234.92 K, 20100 kPa	0.1542
235.03 K, 100 kPa	0.1461
235.09 K, 20200 kPa	0.1538
235.1 K, 10100 kPa	0.1496
235.17 K, 5100 kPa	0.1478
235.22 K, 30200 kPa	0.1563
235.4 K, 30400 kPa	0.1559
235.48 K, 10100 kPa	0.1499
235.53 K, 5100 kPa	0.1479
235.89 K, 10100 kPa	0.15
235.93 K, 5100 kPa	0.1477
235.94 K, 100 kPa	0.1456
254.64 K, 20200 kPa	0.1484
254.74 K, 30000 kPa	0.1514
254.75 K, 5200 kPa	0.1408
254.86 K, 30000 kPa	0.1512
254.91 K, 19700 kPa	0.1477
254.95 K, 100 kPa	0.1386
254.98 K, 10100 kPa	0.1427
254.99 K, 4900 kPa	0.1411
255.26 K, 100 kPa	0.1386
255.28 K, 29900 kPa	0.1512
255.34 K, 20200 kPa	0.1475
255.37 K, 5100 kPa	0.1407
255.38 K, 10200 kPa	0.1432
255.69 K, 10000 kPa	0.1427
255.7 K, 100 kPa	0.1386
274.69 K, 100 kPa	0.1315
274.7 K, 20100 kPa	0.1409
274.71 K, 5000 kPa	0.1338
274.71 K, 10000 kPa	0.1363
274.92 K, 30000 kPa	0.1447
274.93 K, 20000 kPa	0.1409
274.96 K, 100 kPa	0.1319
274.97 K, 10000 kPa	0.1362
275.21 K, 30000 kPa	0.145
275.37 K, 100 kPa	0.1317
275.38 K, 5000 kPa	0.1339
275.56 K, 10100 kPa	0.1364
275.64 K, 30000 kPa	0.145
275.7 K, 20000 kPa	0.1407
275.79 K, 5000 kPa	0.134
294.61 K, 20200 kPa	0.1366
294.79 K, 10100 kPa	0.1311
294.81 K, 5100 kPa	0.128
294.83 K, 29900 kPa	0.1419
294.93 K, 20000 kPa	0.1366
295.04 K, 5000 kPa	0.128
295.06 K, 10100 kPa	0.1309
295.08 K, 29700 kPa	0.1416
295.25 K, 20000 kPa	0.1365
295.26 K, 10000 kPa	0.1308
295.31 K, 100 kPa	0.1248
295.43 K, 5100 kPa	0.1277
295.53 K, 29900 kPa	0.1419
295.6 K, 100 kPa	0.1252
296.02 K, 100 kPa	0.125
314.33 K, 5100 kPa	0.1201
314.44 K, 5300 kPa	0.1205
314.55 K, 30100 kPa	0.1357
314.6 K, 10000 kPa	0.1231
314.95 K, 10100 kPa	0.1236
314.95 K, 20100 kPa	0.1291
314.95 K, 30100 kPa	0.1361
315.01 K, 200 kPa	0.1187
315.13 K, 200 kPa	0.1182
315.21 K, 5200 kPa	0.1202
315.39 K, 30100 kPa	0.1356
315.5 K, 200 kPa	0.1182
315.52 K, 10100 kPa	0.1232
315.56 K, 20200 kPa	0.1289
315.91 K, 20100 kPa	0.1287
335.02 K, 5100 kPa	0.1127
335.13 K, 20300 kPa	0.1222
335.21 K, 5100 kPa	0.1127
335.28 K, 200 kPa	0.1093
335.3 K, 30200 kPa	0.1275
335.33 K, 10200 kPa	0.1159
335.33 K, 19900 kPa	0.1217
335.63 K, 5200 kPa	0.1126
335.71 K, 20400 kPa	0.1224
335.72 K, 10100 kPa	0.1162
335.72 K, 30000 kPa	0.1271
335.78 K, 200 kPa	0.1091
336.08 K, 200 kPa	0.1092
336.13 K, 30200 kPa	0.1269
336.17 K, 10100 kPa	0.1159
354.59 K, 30000 kPa	0.1208
354.75 K, 5000 kPa	0.1044
355.05 K, 10000 kPa	0.1084
355.05 K, 30000 kPa	0.1206
355.08 K, 500 kPa	0.1001
355.18 K, 20000 kPa	0.115
355.32 K, 10100 kPa	0.1082
355.37 K, 5000 kPa	0.1048
355.39 K, 30000 kPa	0.1204
355.52 K, 500 kPa	0.1001
355.52 K, 20000 kPa	0.1148
355.74 K, 5000 kPa	0.1045
355.8 K, 10000 kPa	0.1079
355.82 K, 500 kPa	0.1002
356.03 K, 20000 kPa	0.1147
374.62 K, 10000 kPa	0.1004
374.7 K, 5200 kPa	0.0974
374.92 K, 30000 kPa	0.1132
375.01 K, 29700 kPa	0.1131
375.06 K, 10000 kPa	0.1011
375.22 K, 20000 kPa	0.1081
375.25 K, 5100 kPa	0.0973
375.4 K, 5000 kPa	0.0973
375.46 K, 10000 kPa	0.1008
375.51 K, 29800 kPa	0.1135
375.62 K, 20000 kPa	0.1082
375.72 K, 700 kPa	0.0926
376.18 K, 700 kPa	0.0925
376.28 K, 20000 kPa	0.1076
376.8 K, 700 kPa	0.0923

CC(C)OC(C)C [diisopropyl ether]
Details	thermal conductivity
235.46 K, 100 kPa	0.1259 W/m/K
235.54 K, 100 kPa	0.1258 W/m/K
236.06 K, 100 kPa	0.1259 W/m/K
236.15 K, 30600 kPa	0.1369 W/m/K
236.25 K, 5000 kPa	0.128 W/m/K
236.29 K, 10100 kPa	0.13 W/m/K
236.33 K, 5000 kPa	0.1275 W/m/K
236.44 K, 20200 kPa	0.1331 W/m/K
236.45 K, 20300 kPa	0.1337 W/m/K
236.53 K, 29900 kPa	0.1364 W/m/K
236.67 K, 5000 kPa	0.1277 W/m/K
236.7 K, 10200 kPa	0.1305 W/m/K
236.8 K, 20300 kPa	0.1337 W/m/K
236.92 K, 30000 kPa	0.1363 W/m/K
237.15 K, 10200 kPa	0.1302 W/m/K
254.4 K, 20400 kPa	0.1276 W/m/K
254.47 K, 30400 kPa	0.1314 W/m/K
254.66 K, 5100 kPa	0.122 W/m/K
254.73 K, 100 kPa	0.1201 W/m/K
254.74 K, 10000 kPa	0.1238 W/m/K
254.76 K, 29500 kPa	0.1312 W/m/K
254.86 K, 10200 kPa	0.1241 W/m/K
254.89 K, 5300 kPa	0.1223 W/m/K
254.9 K, 20100 kPa	0.128 W/m/K
255.08 K, 100 kPa	0.1205 W/m/K
255.13 K, 10100 kPa	0.1236 W/m/K
255.14 K, 5100 kPa	0.1221 W/m/K
255.26 K, 100 kPa	0.1199 W/m/K
255.58 K, 30100 kPa	0.1315 W/m/K
255.61 K, 19900 kPa	0.1285 W/m/K
274.6 K, 30000 kPa	0.1274 W/m/K
274.72 K, 10100 kPa	0.1177 W/m/K
274.86 K, 29900 kPa	0.1269 W/m/K
274.89 K, 20000 kPa	0.122 W/m/K
274.95 K, 5100 kPa	0.1154 W/m/K
275 K, 100 kPa	0.1129 W/m/K
275.02 K, 10000 kPa	0.1178 W/m/K
275.17 K, 30100 kPa	0.1271 W/m/K
275.19 K, 5000 kPa	0.115 W/m/K
275.25 K, 10000 kPa	0.1175 W/m/K
275.3 K, 100 kPa	0.1135 W/m/K
275.51 K, 20100 kPa	0.1218 W/m/K
275.6 K, 5000 kPa	0.1152 W/m/K
275.91 K, 100 kPa	0.1131 W/m/K
276.04 K, 20100 kPa	0.1219 W/m/K
294.58 K, 100 kPa	0.1073 W/m/K
294.64 K, 30100 kPa	0.1197 W/m/K
294.65 K, 10000 kPa	0.1118 W/m/K
294.95 K, 5000 kPa	0.1089 W/m/K
294.98 K, 10000 kPa	0.1115 W/m/K
295.03 K, 100 kPa	0.1071 W/m/K
295.13 K, 20100 kPa	0.1161 W/m/K
295.14 K, 30100 kPa	0.1199 W/m/K
295.27 K, 30000 kPa	0.1198 W/m/K
295.32 K, 10100 kPa	0.1111 W/m/K
295.35 K, 5000 kPa	0.1085 W/m/K
295.6 K, 20100 kPa	0.116 W/m/K
295.7 K, 100 kPa	0.1066 W/m/K
295.82 K, 5000 kPa	0.1087 W/m/K
296.18 K, 20100 kPa	0.1159 W/m/K
314.96 K, 30000 kPa	0.1145 W/m/K
315.03 K, 5000 kPa	0.1027 W/m/K
315.07 K, 20000 kPa	0.1105 W/m/K
315.13 K, 100 kPa	0.0993 W/m/K
315.24 K, 30000 kPa	0.1144 W/m/K
315.26 K, 20000 kPa	0.1099 W/m/K
315.35 K, 10000 kPa	0.105 W/m/K
315.39 K, 5000 kPa	0.1023 W/m/K
315.48 K, 100 kPa	0.0996 W/m/K
315.71 K, 10000 kPa	0.1054 W/m/K
315.73 K, 5100 kPa	0.1027 W/m/K
315.76 K, 20000 kPa	0.1104 W/m/K
315.88 K, 100 kPa	0.0994 W/m/K
315.98 K, 30000 kPa	0.1144 W/m/K
316.26 K, 10000 kPa	0.105 W/m/K
334.99 K, 10100 kPa	0.0998 W/m/K
335.01 K, 5400 kPa	0.0959 W/m/K
335.11 K, 20000 kPa	0.1038 W/m/K
335.23 K, 100 kPa	0.0935 W/m/K
335.29 K, 29900 kPa	0.1093 W/m/K
335.32 K, 10100 kPa	0.0995 W/m/K
335.46 K, 100 kPa	0.0932 W/m/K
335.51 K, 30200 kPa	0.1094 W/m/K
335.68 K, 19700 kPa	0.1043 W/m/K
335.72 K, 30000 kPa	0.1096 W/m/K
335.84 K, 5000 kPa	0.096 W/m/K
335.84 K, 10100 kPa	0.0995 W/m/K
335.94 K, 100 kPa	0.0931 W/m/K
336.31 K, 20100 kPa	0.1042 W/m/K
336.37 K, 5200 kPa	0.0959 W/m/K
354.72 K, 29900 kPa	0.106 W/m/K and 0.1051 W/m/K
354.85 K, 19700 kPa	0.1006 W/m/K
354.97 K, 5000 kPa	0.0913 W/m/K
354.97 K, 19800 kPa	0.1 W/m/K
355.23 K, 10100 kPa	0.0944 W/m/K
355.29 K, 300 kPa	0.0865 W/m/K
355.33 K, 10100 kPa	0.0944 W/m/K
355.45 K, 5000 kPa	0.0916 W/m/K
355.47 K, 20100 kPa	0.1001 W/m/K
355.56 K, 5000 kPa	0.091 W/m/K
355.66 K, 300 kPa	0.0869 W/m/K
355.87 K, 10000 kPa	0.094 W/m/K
356.04 K, 300 kPa	0.0866 W/m/K
356.04 K, 29900 kPa	0.1056 W/m/K
374.75 K, 30000 kPa	0.1021 W/m/K
374.95 K, 29800 kPa	0.1021 W/m/K
375.12 K, 20000 kPa	0.0959 W/m/K
375.24 K, 400 kPa	0.0813 W/m/K
375.25 K, 10000 kPa	0.0893 W/m/K
375.4 K, 5100 kPa	0.0858 W/m/K
375.47 K, 400 kPa	0.0812 W/m/K
375.55 K, 30300 kPa	0.1026 W/m/K
375.57 K, 20000 kPa	0.0957 W/m/K
375.61 K, 10000 kPa	0.0889 W/m/K
375.75 K, 5100 kPa	0.0853 W/m/K
375.87 K, 400 kPa	0.0816 W/m/K
376.05 K, 20000 kPa	0.0955 W/m/K
376.23 K, 10000 kPa	0.089 W/m/K
376.26 K, 5100 kPa	0.0854 W/m/K
